The text below walks through data of EP0117811A2, “Fungicidal pharmaceutical compositions for oral administration” (SANOFI S.A., priority 1983, dated 1984).

This data set can be described thus: Bioavailability in the baboon: plasma levels of omoconazole after oral administration (microbiological agar diffusion assay, test germ Candida macedoniensis). The format is in vivo, babouin. To be noted: fasted baboons. The protocol: La biodisponibilité des compositions pharmaceutiques selon l'invention a été étudiée chez le babouin en comparaison avec le produit (I) seul.
Les études ont été conduites à la dose de 100 mg/kg d'omoconazole et les produits ont été administrés aux singes à jeun par sonde gastrique. […] Les dosages des taux plasmatiques d'omoconazole ont été effectués par une méthode microbiologique réalisée à l'aide d'une technique de diffusion en milieu gélosé avec comme germe test Candida macedoniensis.
Des essais ont été effectués selon la même méthode, avec les formulations des exemples 4, 5, 6, 9 et 14. Pour les 3 premiers cas, les formulations ont été administrées telles quelles (solution) tandis que les compositions des exemples 9 et 14 et l'omoconazole ont été administrés dans des gélules No. 2. […]

Read-outs that look alike come from different tables or passages of the source.

In the case of `C/C(=C(/OCCOc1ccc(Cl)cc1)c1ccc(Cl)cc1Cl)n1ccnc1` [Omoconazole], the AUC (baboon, 100 mg/kg omoconazole oral, mean of 4 animals, Ex 4, 5, 6 given as such, Ex 9, 14 and omoconazole in No. 2 capsules, read-out: Aire sous la courbe) amounted to 11600 ng·h/mL. The Cmax by setting is: (baboon, 100 mg/kg omoconazole oral, mean of 4 animals, Ex 4, 5, 6 given as such, Ex 9, 14 and omoconazole in No. 2 capsules, read-out: Concentration maximale) 1350 ng/mL; (100 mg/kg omoconazole by gastric tube, mean of 3 animals) 1,35 µg/ml. The Tmax (baboon, 100 mg/kg omoconazole oral, mean of 4 animals, Ex 4, 5, 6 given as such, Ex 9, 14 and omoconazole in No. 2 capsules, read-out: Temps de C. Max.) is 5.5 h. Further, the AUC at 24 h (baboon, po, 100 mg/kg omoconazole by gastric tube, mean of 3 animals, sampling up to 24 h, read-out: aire sous la courbe) worked out at 11500 ng·h/mL.
